# Laboratory results published in ChEMBL document CHEMBL1275398, “Side chain cyclization based on serine residues: synthesis, structure, and activity of a novel cyclic analogue of the parathyroid hormone fragment 1-11” (J Med Chem, 2010).
# *1 amine or outer side, *2 acyl side, *3 side chain or, on linkers, in order; H or OH if unused. Where a SMILES comes first, the peptide text is derived from it. Bridges are numbered along the chain shown (N, C = ends). [ ]: non-standard residue; d: D form. Adipoyl = O=C(CCCCC(=O)[*:2])[*:1]; hArg = N=C(N)NCCCC[C@H](N)C(=O)O; Nle = CCCC[C@H](N)C(=O)O; Aib = CC(C)(N)C(=O)O
# Target: T1, Parathyroid hormone/parathyroid hormone-related peptide receptor (Homo sapiens) (UniProt Q03431)
# T1 sequence (whole entry): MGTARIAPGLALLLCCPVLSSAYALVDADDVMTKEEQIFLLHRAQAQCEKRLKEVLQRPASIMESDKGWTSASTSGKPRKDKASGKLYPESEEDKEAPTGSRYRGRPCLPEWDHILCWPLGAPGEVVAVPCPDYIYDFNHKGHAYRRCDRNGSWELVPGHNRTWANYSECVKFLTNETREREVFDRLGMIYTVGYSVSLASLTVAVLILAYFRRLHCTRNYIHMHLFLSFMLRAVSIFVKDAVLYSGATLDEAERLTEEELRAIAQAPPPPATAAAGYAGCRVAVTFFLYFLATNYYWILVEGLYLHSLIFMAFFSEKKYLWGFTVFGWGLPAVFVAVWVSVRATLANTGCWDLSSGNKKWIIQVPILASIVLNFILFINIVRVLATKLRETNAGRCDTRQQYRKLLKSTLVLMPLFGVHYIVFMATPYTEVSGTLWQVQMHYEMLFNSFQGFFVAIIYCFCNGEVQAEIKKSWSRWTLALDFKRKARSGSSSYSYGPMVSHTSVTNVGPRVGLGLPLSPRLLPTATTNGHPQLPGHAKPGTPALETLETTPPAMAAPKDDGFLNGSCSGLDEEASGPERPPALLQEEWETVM
# Assay: Agonist activity at recombinant PTHR1 expressed in HEK293 cells co-transfected with CRE-Luc assessed as maximal increase of adenylyl cyclase activity after 4.5 hrs by luciferase assay relative to control
# Format: functional, cell-based
row,Compound,Activity [%]
1,CCCC[C@H](NC(=O)[C@H](CC(C)C)NC(=O)[C@H](CCC(N)=O)NC(=O)[C@@H](NC(=O)[C@H](CCC(=O)O)NC(=O)C(C)(C)NC(=O)[C@@H](NC(=O)C(C)(C)N)C(C)C)[C@@H](C)CC)C(=O)N[C@@H](Cc1cnc[nH]1)C(=O)N[C@@H](CCC(N)=O)C(=O)N[C@@H](CCCCNC(=N)N)C(N)=O (H-[Aib]V[Aib]EIQL[Nle]HQ[hArg]-NH2),90
2,CCCC[C@@H]1NC(=O)[C@H](CC(C)C)NC(=O)[C@@H](NC(=O)[C@@H](NC(=O)[C@H](CCC(=O)O)NC(=O)C(C)(C)NC(=O)[C@@H](NC(=O)C(C)(C)N)C(C)C)[C@@H](C)CC)COC(=O)CCCCC(=O)OC[C@@H](C(=O)N[C@@H](CCCCNC(=N)N)C(N)=O)NC(=O)[C@H](Cc2cnc[nH]2)NC1=O (H-[Aib]V[Aib]EISL[Nle]HS[hArg]-NH2; linker 6-10 via Adipoyl),159
3,CCCC[C@@H]1NC(=O)[C@H](CC(C)C)NC(=O)[C@@H](NC(=O)[C@@H](NC(=O)[C@H](CCC(=O)O)NC(=O)C(C)(C)NC(=O)[C@@H](NC(=O)C(C)(C)N)C(C)C)[C@@H](C)CC)CCCCNC(=O)CC[C@@H](C(=O)N[C@@H](CCCCNC(=N)N)C(N)=O)NC(=O)[C@H](Cc2cnc[nH]2)NC1=O (H-[Aib]V[Aib]EIKL[Nle]HE[hArg]-NH2; lactam 6-10),98

# Target: T2, Parathyroid hormone/parathyroid hormone-related peptide receptor (Homo sapiens, UniProt Q03431)
# T2 sequence (Q03431 whole entry): T1 sequence (whole entry)
# Assay: Agonist activity at recombinant PTHR1 expressed in HEK293 cells co-transfected with CRE-Luc assessed as increase of adenylyl cyclase activity after 4.5 hrs by luciferase assay
# Format: functional, cell-based
row,Compound,EC50 [nM]
1,CCCC[C@H](NC(=O)[C@H](CC(C)C)NC(=O)[C@H](CCC(N)=O)NC(=O)[C@@H](NC(=O)[C@H](CCC(=O)O)NC(=O)C(C)(C)NC(=O)[C@@H](NC(=O)C(C)(C)N)C(C)C)[C@@H](C)CC)C(=O)N[C@@H](Cc1cnc[nH]1)C(=O)N[C@@H](CCC(N)=O)C(=O)N[C@@H](CCCCN=C(N)N)C(N)=O (H-[Aib]V[Aib]EIQL[Nle]HQ[hArg]-NH2),2.4
2,CCCC[C@@H]1NC(=O)[C@H](CC(C)C)NC(=O)[C@@H](NC(=O)[C@@H](NC(=O)[C@H](CCC(=O)O)NC(=O)C(C)(C)NC(=O)[C@@H](NC(=O)C(C)(C)N)C(C)C)[C@@H](C)CC)CCCCNC(=O)CC[C@@H](C(=O)N[C@@H](CCCCN=C(N)N)C(N)=O)NC(=O)[C@H](Cc2cnc[nH]2)NC1=O (H-[Aib]V[Aib]EIKL[Nle]HE[hArg]-NH2; lactam 6-10),1120
3,CCCC[C@@H]1NC(=O)[C@H](CC(C)C)NC(=O)[C@@H](NC(=O)[C@@H](NC(=O)[C@H](CCC(=O)O)NC(=O)C(C)(C)NC(=O)[C@@H](NC(=O)C(C)(C)N)C(C)C)[C@@H](C)CC)COC(=O)CCCCC(=O)OC[C@@H](C(=O)N[C@@H](CCCCN=C(N)N)C(N)=O)NC(=O)[C@H](Cc2cnc[nH]2)NC1=O (H-[Aib]V[Aib]EISL[Nle]HS[hArg]-NH2; linker 6-10 via Adipoyl),0.2
